# According to patent US8017633B2, “Roflumilast for the treatment of diabetes mellitus” (Nycomed GmbH, priority 2005, dated 2011):
# How the values were obtained:
# [1] = system: C57BLKS db/db mice; assay: Daily water intake of db/db mice during once-daily oral treatment; type: in vivo, mouse
# Experimental: (§1) Female C57BLKS db/db mice obtained from M&B A/S (8680 Ry, Denmark) were used in the studies at 10 to 11 weeks of age. Mice were housed 10 per cage and allowed free access to water and standard laboratory diet for rodents (chow 3433, Provimi Kliba SA, 4303 Kaiseraugst, Switzerland).
# (§2) Mice were treated with vehicle, Roflumilast or Roflumilast-N-Oxide, respectively once daily in the morning. Roflumilast or Roflumilast-N-Oxide was suspended in 4% methocel and applied via oral gavage using oral feeding & dosing needles (outer diameter: 1.5 mm, TSE GmbH, 61350 Bad Homburg, Germany). A volume of 10 ml/kg body weight was administered for each dose.
# (§3) The daily intake of food (chow 3433) and water was measured per animal (total daily intake of food divided by the number of animals) before and during the treatment with Roflumilast or Roflumilast-N-Oxide.
# [2] = system: C57BLKS db/db mice; assay: Daily food intake of db/db mice during once-daily oral treatment; type: in vivo, mouse; details: for Daily food intake before the first application: 1 mg/kg group; for Daily food intake on the days of application: 1 mg/kg oral once daily
# Experimental: as §1, §2, §3
structure (smiles),measurement,setting,value
"O=C(Nc1c(Cl)c[n+]([O-])cc1Cl)c1ccc(OC(F)F)c(OCC2CC2)c1 [Rof-N-Oxide, 3-cyclopropylmethoxy-4-difluoromethoxy-N-(3,5-dichloro-1-oxido-pyridin-4-yl)benzamide]",Daily water intake before the first application,"[1]; 1 mg/kg group, Day −1, before first application",8.6 g per mouse
same,Daily water intake before the first application,"[1]; 1 mg/kg group, Day −2, before first application",7.9 g per mouse
same,Daily water intake before the first application,"[1]; 1 mg/kg group, Day −3, before first application",8.4 g per mouse
same,Daily water intake before the first application,"[1]; 1 mg/kg group, Day −4, before first application",9.4 g per mouse
same,Daily water intake before the first application,"[1]; 1 mg/kg group, Day −5, before first application",9.2 g per mouse
same,Daily water intake on the days of application,"[1]; 1 mg/kg oral once daily, Day 1",7.6 g per mouse
same,Daily water intake on the days of application,"[1]; 1 mg/kg oral once daily, Day 2",6.9 g per mouse
same,Daily water intake on the days of application,"[1]; 1 mg/kg oral once daily, Day 4",7.1 g per mouse
same,Daily water intake on the days of application,"[1]; 1 mg/kg oral once daily, Day 5",8.0 g per mouse
same,Daily water intake on the days of application,"[1]; 1 mg/kg oral once daily, Day 6",7.7 g per mouse
same,Daily water intake on the days of application,"[1]; 1 mg/kg oral once daily, Day 7",8.5 g per mouse
same,Daily water intake on the days of application,"[1]; 1 mg/kg oral once daily, Day 8",7.2 g per mouse
same,Daily water intake before the first application,"[1]; 3 mg/kg group, Day −1, before first application",9.1 g per mouse
same,Daily water intake before the first application,"[1]; 3 mg/kg group, Day −2, before first application",7.6 g per mouse
same,Daily water intake before the first application,"[1]; 3 mg/kg group, Day −3, before first application",7.6 g per mouse
same,Daily water intake before the first application,"[1]; 3 mg/kg group, Day −4, before first application",4.3 g per mouse
same,Daily water intake before the first application,"[1]; 3 mg/kg group, Day −5, before first application",9.8 g per mouse
same,Daily water intake on the days of application,"[1]; 3 mg/kg oral once daily, Day 1",5.1 g per mouse
same,Daily water intake on the days of application,"[1]; 3 mg/kg oral once daily, Day 2",5.9 g per mouse
same,Daily water intake on the days of application,"[1]; 3 mg/kg oral once daily, Day 4",5.9 g per mouse
same,Daily water intake on the days of application,"[1]; 3 mg/kg oral once daily, Day 5",5.7 g per mouse
same,Daily water intake on the days of application,"[1]; 3 mg/kg oral once daily, Day 6",5.4 g per mouse
same,Daily water intake on the days of application,"[1]; 3 mg/kg oral once daily, Day 7",5.4 g per mouse
same,Daily water intake on the days of application,"[1]; 3 mg/kg oral once daily, Day 8",5.2 g per mouse
same,Daily water intake before the first application,"[1]; 10 mg/kg group, Day −1, before first application",9.6 g per mouse
same,Daily water intake before the first application,"[1]; 10 mg/kg group, Day −2, before first application",8.2 g per mouse
same,Daily water intake before the first application,"[1]; 10 mg/kg group, Day −3, before first application",7.9 g per mouse
same,Daily water intake before the first application,"[1]; 10 mg/kg group, Day −4, before first application",9.6 g per mouse
same,Daily water intake before the first application,"[1]; 10 mg/kg group, Day −5, before first application",12.1 g per mouse
same,Daily water intake on the days of application,"[1]; 10 mg/kg oral once daily, Day 1",2.9 g per mouse
same,Daily water intake on the days of application,"[1]; 10 mg/kg oral once daily, Day 2",3.5 g per mouse
same,Daily water intake on the days of application,"[1]; 10 mg/kg oral once daily, Day 4",3.2 g per mouse
same,Daily water intake on the days of application,"[1]; 10 mg/kg oral once daily, Day 5",3.7 g per mouse
same,Daily water intake on the days of application,"[1]; 10 mg/kg oral once daily, Day 6",3.3 g per mouse
same,Daily water intake on the days of application,"[1]; 10 mg/kg oral once daily, Day 7",3.0 g per mouse
same,Daily water intake on the days of application,"[1]; 10 mg/kg oral once daily, Day 8",4.1 g per mouse
same,Daily water intake before the first application,"[1]; 30 mg/kg group, Day −1, before first application",10.1 g per mouse
same,Daily water intake before the first application,"[1]; 30 mg/kg group, Day −2, before first application",9.4 g per mouse
same,Daily water intake before the first application,"[1]; 30 mg/kg group, Day −3, before first application",10.0 g per mouse
same,Daily water intake before the first application,"[1]; 30 mg/kg group, Day −4, before first application",12.4 g per mouse
same,Daily water intake before the first application,"[1]; 30 mg/kg group, Day −5, before first application",10.1 g per mouse
same,Daily water intake on the days of application,"[1]; 30 mg/kg oral once daily, Day 1",2.3 g per mouse
same,Daily water intake on the days of application,"[1]; 30 mg/kg oral once daily, Day 2",2.4 g per mouse
same,Daily water intake on the days of application,"[1]; 30 mg/kg oral once daily, Day 4",2.6 g per mouse
same,Daily water intake on the days of application,"[1]; 30 mg/kg oral once daily, Day 5",3.0 g per mouse
same,Daily water intake on the days of application,"[1]; 30 mg/kg oral once daily, Day 6",2.9 g per mouse
same,Daily water intake on the days of application,"[1]; 30 mg/kg oral once daily, Day 7",3.3 g per mouse
same,Daily water intake on the days of application,"[1]; 30 mg/kg oral once daily, Day 8",2.5 g per mouse
same,Effect on increased daily water intake (summary in words),"[1]; db/db mice, treatment once daily oral",reduced
same,Daily food intake before the first application,"[2]; Day −1, before first application",6.4 g per mouse
same,Daily food intake before the first application,"[2]; Day −2, before first application",6.4 g per mouse
same,Daily food intake before the first application,"[2]; Day −3, before first application",6.4 g per mouse
same,Daily food intake before the first application,"[2]; Day −4, before first application",5.9 g per mouse
same,Daily food intake before the first application,"[2]; Day −5, before first application",6.0 g per mouse
same,Daily food intake on the days of application,[2]; Day 1,5.4 g per mouse
same,Daily food intake on the days of application,[2]; Day 2,5.4 g per mouse
